The results in this text go back to ChEMBL document CHEMBL1135217, “N-aryl 2,6-dimethoxybiphenylalanine analogues as VLA-4 antagonists” (Bioorg Med Chem Lett, 2002).

The target of series [1] is T1, Integrin alpha-4/beta-1 (Homo sapiens, UniProt P05556+P13612). The series is described as follows: In vitro inhibition of [125I]VCAM-Ig binding to very late antigen -4 on jurkat cells. Type of series: cell-based.
Series [2] has as its target T1, Integrin alpha-4/beta-1. In words: Inhibition of [125I]-VCAM-Ig binding to very late antigen -4 (VLA-4) on Jurkat cells at 4 uM. Type of series: cell-based.
A short description of series [3]: Clearance in Dawley rat. To be noted: Sprague-Dawley, plasma, read-out: Clp. Type of series: ADME, organism-based.
The nature of series [4]: Bioavailability in rat (Sprague-Dawley). Type of series: ADME, organism-based. To be noted: in vivo.
Series [5] is filed under the species Rattus norvegicus. In words: Volume of distribution at steady state in Dawley rat. To be noted: in vivo.
The species entered for series [6] is Rattus norvegicus. The series is described as follows: Half-life was determined in Dawley rat. To be noted: in vivo.

T1 sequence (P05556 whole entry): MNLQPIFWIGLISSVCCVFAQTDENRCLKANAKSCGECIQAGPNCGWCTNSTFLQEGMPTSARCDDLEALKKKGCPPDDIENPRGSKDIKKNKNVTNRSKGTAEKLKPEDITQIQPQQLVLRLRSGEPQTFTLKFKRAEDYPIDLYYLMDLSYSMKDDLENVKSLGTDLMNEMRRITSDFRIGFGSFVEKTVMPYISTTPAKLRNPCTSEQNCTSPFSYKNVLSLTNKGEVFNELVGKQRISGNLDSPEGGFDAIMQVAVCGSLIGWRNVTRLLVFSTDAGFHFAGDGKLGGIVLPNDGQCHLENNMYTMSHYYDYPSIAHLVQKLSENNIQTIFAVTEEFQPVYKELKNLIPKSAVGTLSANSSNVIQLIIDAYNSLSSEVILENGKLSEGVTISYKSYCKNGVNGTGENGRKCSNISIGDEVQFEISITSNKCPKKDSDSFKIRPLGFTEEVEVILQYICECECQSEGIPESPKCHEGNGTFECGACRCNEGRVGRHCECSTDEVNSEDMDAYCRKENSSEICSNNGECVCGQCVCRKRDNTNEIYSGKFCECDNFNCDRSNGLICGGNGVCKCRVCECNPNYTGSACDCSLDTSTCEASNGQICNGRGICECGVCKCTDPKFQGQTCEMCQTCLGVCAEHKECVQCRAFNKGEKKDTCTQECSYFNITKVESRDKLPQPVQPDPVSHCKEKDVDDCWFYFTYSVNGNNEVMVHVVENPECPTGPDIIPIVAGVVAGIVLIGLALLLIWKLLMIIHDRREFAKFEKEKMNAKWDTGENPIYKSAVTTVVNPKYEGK
T1 sequence (P13612 whole entry): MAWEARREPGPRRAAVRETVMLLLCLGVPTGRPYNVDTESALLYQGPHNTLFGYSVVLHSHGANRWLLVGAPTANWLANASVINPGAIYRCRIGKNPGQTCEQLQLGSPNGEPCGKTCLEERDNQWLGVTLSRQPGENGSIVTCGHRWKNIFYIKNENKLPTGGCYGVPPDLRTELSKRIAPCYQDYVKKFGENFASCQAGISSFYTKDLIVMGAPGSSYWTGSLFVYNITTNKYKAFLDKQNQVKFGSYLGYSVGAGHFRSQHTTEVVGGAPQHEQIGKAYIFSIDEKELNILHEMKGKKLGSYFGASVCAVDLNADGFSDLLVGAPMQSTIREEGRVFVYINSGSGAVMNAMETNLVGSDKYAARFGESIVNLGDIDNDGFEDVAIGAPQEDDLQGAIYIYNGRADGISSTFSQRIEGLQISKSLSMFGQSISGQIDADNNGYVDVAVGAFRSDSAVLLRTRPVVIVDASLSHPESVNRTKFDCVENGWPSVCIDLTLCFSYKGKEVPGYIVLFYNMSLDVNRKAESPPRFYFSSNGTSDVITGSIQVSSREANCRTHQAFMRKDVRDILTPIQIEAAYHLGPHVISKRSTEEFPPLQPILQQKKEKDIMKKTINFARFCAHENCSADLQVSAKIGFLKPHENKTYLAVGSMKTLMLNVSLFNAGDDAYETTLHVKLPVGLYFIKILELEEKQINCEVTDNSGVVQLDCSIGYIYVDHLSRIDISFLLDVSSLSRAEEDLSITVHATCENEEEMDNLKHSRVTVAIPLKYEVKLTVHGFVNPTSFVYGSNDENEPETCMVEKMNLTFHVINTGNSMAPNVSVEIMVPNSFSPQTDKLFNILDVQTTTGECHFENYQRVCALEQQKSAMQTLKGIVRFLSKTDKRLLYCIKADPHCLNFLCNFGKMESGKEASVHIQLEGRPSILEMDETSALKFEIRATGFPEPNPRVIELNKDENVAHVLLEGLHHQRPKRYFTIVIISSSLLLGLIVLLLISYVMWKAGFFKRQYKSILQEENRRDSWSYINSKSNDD

Broadly, the IC50 is the point on the concentration scale where inhibition reaches its midpoint. Consider `COc1cccc(OC)c1-c1ccc(CC(Nc2ccccc2)C(=O)O)cc1` (stereo not given), for which the IC50 on Integrin alpha-4/beta-1 [1] is 8870 nM. Still for that read-out and setting: with `COc1cccc(OC)c1-c1ccc(CC(Nc2ccc([N+](=O)[O-])cc2)C(=O)O)cc1` (stereo not given) the figure was 5250 nM; with `COc1cccc(OC)c1-c1ccc(CC(Nc2ccc(C(F)(F)F)cn2)C(=O)O)cc1` (stereo not given), 3190 nM.

As for `COc1cccc(OC)c1-c1ccc(CC(Nc2ccncc2)C(=O)O)cc1` (stereo not given), the IC50 on Integrin alpha-4/beta-1 [1] came to 170 nM. The same measure, in the same setting: with `COc1cccc(OC)c1-c1ccc(CC(Nc2ccc(S(C)(=O)=O)cc2)C(=O)O)cc1` (stereo not given) the figure was 97 nM; with `COc1cccc(OC)c1-c1ccc(CC(Nc2ccc(S(=O)(=O)c3ccccc3)cc2)C(=O)O)cc1` (stereo not given), 240 nM. On the same count and under the same terms, with `COc1cccc(OC)c1-c1ccc(CC(Nc2ccccn2)C(=O)O)cc1` (stereo not given) the figure was 610 nM. What is called inhibition is the percentage by which the read-out fell short of the control. A high value points to strong suppression. Consider `COc1cccc(OC)c1-c1ccc(CC(Nc2ccc(C(F)(F)F)cc2)C(=O)O)cc1` (stereo not given), for which the inhibition at Integrin alpha-4/beta-1 [2] came out at 45%. On the same count and under the same terms, with `COc1cccc(OC)c1-c1ccc(CC(Nc2cc(C(F)(F)F)cc(C(F)(F)F)c2)C(=O)O)cc1` (stereo not given) the figure was 46%. The compound `COc1cccc(OC)c1-c1ccc(CC(Nc2ccc(C#N)cc2)C(=O)O)cc1` (stereo not given) registered an IC50 on Integrin alpha-4/beta-1 [1] of 4470 nM. On the same count and under the same terms, with `COc1cccc(OC)c1-c1ccc(CC(Nc2ccccc2[N+](=O)[O-])C(=O)O)cc1` (stereo not given) the figure was 3550 nM. As for `COc1cccc(OC)c1-c1ccc(C[C@H](NC(C)=O)C(=O)O)cc1`, the IC50 at Integrin alpha-4/beta-1 [1] was determined as 12 nM. The same measure, in the same setting: under `COc1cccc(OC)c1-c1ccc(CC(Nc2ccc(S(=O)(=O)N3CCCC3)cc2)C(=O)O)cc1` (stereo not given) stands 91 nM.

What is called bioavailability is the share of a dose that reaches the circulation, judged against a reference dose that is usually intravenous. Higher therefore signals good availability. As usually defined, the Vdss is a proportionality between amount in the body and measured concentration, not a real space. Turning to `COc1cccc(OC)c1-c1ccc(CC(Nc2cccc(S(=O)(=O)N3CCCC3)c2)C(=O)O)cc1` (stereo not given), in series [3], the clearance turned out to be 73 mL/min/kg. Further, in series [4], the bioavailability was found to be 24%. Moreover, in the series filed under Rattus norvegicus [5], the Vdss stood at 0.55 L/kg. Further, in the series filed under Rattus norvegicus [6], the T1/2 came to 54 min. On Integrin alpha-4/beta-1 [1], this compound returned an IC50 of 12 nM.

As to `COc1cccc(OC)c1-c1ccc(CC(Nc2ccc(C(=O)N3CCCC3)cc2)C(=O)O)cc1` (stereo not given), at Integrin alpha-4/beta-1 [1], the IC50 came out at 320 nM.

For the compound `CCCS(=O)(=O)c1cc(NC(Cc2ccc(-c3c(OC)cccc3OC)cc2)C(=O)O)ncn1` (stereo not given), the clearance in series [3] was 17 mL/min/kg. In addition, the bioavailability in series [4] came out at 6%. Moreover, the Vdss in the series listed under Rattus norvegicus [5] was determined as 0.28 L/kg. Also, the T1/2 in the series listed under Rattus norvegicus [6] worked out at 48 min. The compound also yielded an IC50 on Integrin alpha-4/beta-1 [1] of 0.39 nM. Consider `COc1cccc(NC(Cc2ccc(-c3c(OC)cccc3OC)cc2)C(=O)O)n1` (stereo not given), for which the IC50 at Integrin alpha-4/beta-1 [1] amounted to 4180 nM. Take `COc1cccc(OC)c1-c1ccc(CC(Nc2cccnc2)C(=O)O)cc1` (stereo not given): on Integrin alpha-4/beta-1 [1], the IC50 stood at 820 nM. Against the preceding compound, the IC50 is about 5.1-fold lower. On the same count and under the same terms, with `COc1cccc(OC)c1-c1ccc(CC(Nc2cc(Cl)cc(Cl)c2)C(=O)O)cc1` (stereo not given) the figure was 6490 nM; with `COc1cccc(OC)c1-c1ccc(CC(NC(=O)c2ccccc2)C(=O)O)cc1` (stereo not given), 1.2 nM. On the same count and under the same terms, under `COc1cccc(OC)c1-c1ccc(CC(Nc2ccc(C(=O)N3CCCC3)cn2)C(=O)O)cc1` (stereo not given) stands 23 nM.

Turning to `COc1cccc(OC)c1-c1ccc(CC(Nc2cccc(C#N)c2)C(=O)O)cc1` (stereo not given), the IC50 at Integrin alpha-4/beta-1 [1] came to 4360 nM. This IC50 lies about 190-fold higher than the previous one.
